The values that follow come from PMC9600929, “Structural and Mechanistic Bases of Viral Resistance to HIV-1 Capsid Inhibitor Lenacapavir” (mBio, 2022).

Values joined by “and” are separate entries in the source; they are usually repeats but may differ in a detail not shown here. Identical values can stand only once.

One series relates to MT4 cells. The series is described as follows: in vitro. Type of series: cell-based. Particulars: MT4 cells, 2 days, CellTiter-Glo. On the procedure: (§1) MT4 cells in complete RPMI were mixed with the indicated concentrations of compounds on 96-well plates (1 × 10^4 cells per well). Cells were kept in a humidified 37°C incubator for 2 days. The effect of test compounds on cell viability was measured using CellTiter-Glo (Promega, G7570).
For orientation: ATP-based viability assays read luminescence as a measure of living cells.

Another series in a line: in vitro. Type of series: cell-based. The conditions noted are these: human; from cytotoxicity (Fig. S7) and antiviral activity (Fig. 5C); read-out: selectivity index. On the procedure: as §1
The subject of another series is HIV-1NL4-3 WT CA. The series is described as follows: microbe, parasite or virus in culture. Particulars: Human immunodeficiency virus 1, MT4. Type of series: cell-based.
Series [1] has as its target T1, cross-linked HIV-1 CA(Q67H/N74D) hexamer (Human immunodeficiency virus type 1 group M subtype B, UniProt P12493, A146C/E177C/M317A/N206D/Q199H/W316A).
T1 construct: Expression, purification and assembly of recombinant CA; made in house; host or cells: E. coli BL21-DE3 (pET3a)
The series is described as follows: biochemical. Type of series: binding.

Another series relates to HIV-1NL4-3 Q67H/N74D CA. The series is described as follows: microbe, parasite or virus in culture. Type of series: cell-based. The conditions noted are these: for EC50: Human immunodeficiency virus 1, MT4.
Series [2] deals with cross-linked HIV-1 CA(WT) hexamer (Human immunodeficiency virus type 1 group M subtype B, UniProt P12493, A146C/E177C/M317A/W316A). The series is described as follows: SPR binding to cross-linked CA(WT) hexamers. (Surface plasmon resonance follows binding to a sensor surface in real time, without labels.)
In a further series the test system is HIV-1NL4-3 N74D CA. The series is described as follows: microbe, parasite or virus in culture. Type of series: cell-based. The conditions noted are these: for EC50: Human immunodeficiency virus 1, MT4.
For another series, the system named is HIV-1NL4-3 Q67H CA. The series is described as follows: microbe, parasite or virus in culture. Type of series: cell-based. Particulars: for EC50: Human immunodeficiency virus 1, MT4.
The subject of another series is HIV-1(M66I CA). Type of series: cell-based. The conditions noted are these: early stage antiviral activity.
A further series relates to HIV-1NL4-3 Q67H/K70R CA. The series is described as follows: microbe, parasite or virus in culture. Type of series: cell-based. The conditions noted are these: for EC50: Human immunodeficiency virus 1, MT4, HIV-1NL4-3 Q67H/K70R CA, MT-4 cells, mean ± SD.
The next series relates to HIV-1 nuclear import. More on the design: method as in PMID 32612233, PMID 31501601, PMID 33060363. The conditions noted are these: during virus ingress; cited from earlier work.
In series [3] the test system is HIV-1 reverse transcription. More on the design: method as in PMID 32612233, PMID 31501601, PMID 33060363. The conditions noted are these: during virus ingress; cited from earlier work.
The target in series [4] is cross-linked HIV-1 CA(Q67H) hexamer (Human immunodeficiency virus type 1 group M subtype B, UniProt P12493, A146C/E177C/M317A/Q199H/W316A). The series is described as follows: SPR binding to cross-linked CA(Q67H) hexamers.
Another series concerns HIV-1 integration. More on the design: method as in PMID 32612233, PMID 31501601, PMID 33060363. The conditions noted are these: during virus ingress; cited from earlier work.
In series [5] the target is cross-linked HIV-1 CA(N74D) hexamer (Human immunodeficiency virus type 1 group M subtype B, UniProt P12493, A146C/E177C/M317A/N206D/W316A). The series is described as follows: SPR binding to cross-linked CA(N74D) hexamers.
The mark [6] stands for this setting: WT compared to WT CA (reference).

The term EC50 denotes the concentration giving half of the maximal effect. In the case of `CC(C)(C#Cc1ccc(-c2ccc(Cl)c3c(NS(C)(=O)=O)nn(CC(F)(F)F)c23)c([C@H](Cc2cc(F)cc(F)c2)NC(=O)Cn2nc(C(F)(F)F)c3c2CCCC3)n1)S(C)(=O)=O` [KFA-012], in the series with MT4 cells, the “compound concentrations with adverse effects on cell viability” value was greater than 3000 nM. Besides, the “concentration up to which no cytotoxicity was observed” value in the series with MT4 cells was “up to 781 nM”. Moreover, the selectivity ratio at 2 days in “in vitro” was greater than 10000. Moreover, the EC50 amounted to 0.071 ± 0.006 nM in the series on HIV-1NL4-3 WT CA; 9.18 nM with HIV-1NL4-3 Q67H/N74D CA; 0.633 ± 0.014 nM with HIV-1NL4-3 N74D CA; 0.335 ± 0.01 nM in the series on HIV-1NL4-3 Q67H CA; 0.883 ± 0.17 nM with HIV-1NL4-3 Q67H/K70R CA. For the same compound, the “improved binding affinity compared with parental LEN” value in series [1] (CA(Q67H/N74D) hexamer, SPR) is ~ 2 fold; in series [2] (CA(WT) hexamer, SPR) it was ~ 2 fold. Also, the figures for the “Fold increase of KFA-012 potency versus LEN potency” value with HIV-1NL4-3 Q67H/N74D CA (HIV-1NL4-3 Q67H/N74D CA), with HIV-1NL4-3 Q67H CA (HIV-1NL4-3 Q67H CA) and in the series with HIV-1NL4-3 Q67H/K70R CA (HIV-1NL4-3 Q67H/K70R CA) were 2.6 fold, 1.8 fold and ~ 1.7 fold, respectively. In the series with HIV-1(M66I CA), the “susceptibility of the virus to the inhibitor” value is on record as “fully resistant”.

The Kd is a measure of binding affinity in units of concentration. For `CC(C)(C#Cc1ccc(-c2ccc(Cl)c3c(NS(C)(=O)=O)nn(CC(F)(F)F)c23)c([C@H](Cc2cc(F)cc(F)c2)NC(=O)Cn2nc(C(F)(F)F)c3c2C(F)(F)[C@@H]2C[C@H]32)n1)S(C)(=O)=O` [LEN, Lenacapavir], the EC50 with HIV-1 nuclear import was 0.5 to 5 nM; in series [3] it was 5 to 50 nM; with HIV-1NL4-3 WT CA, 0.091 ± 0.01 nM; with HIV-1NL4-3 Q67H/N74D CA it was 24.2 nM; in the series with HIV-1NL4-3 N74D CA, 0.902 ± 0.027 nM; with HIV-1NL4-3 Q67H CA, 0.611 ± 0.01 nM. The EC50 in the series with HIV-1 integration was 0.05 to 0.5 nM; in the series on HIV-1NL4-3 Q67H/K70R CA, 1.5 ± 0.023 nM. Moreover, the “association rate constant (kon)” value in series [1] (CA (Q67H/N74D), mean ± SD) is 3.0 ± 0.9 x 10^4 M^-1s^-1; in series [4] (CA (Q67H), mean ± SD), 6.4 ± 1.1 x 10^4 M^-1s^-1; in series [2] (CA (WT), mean ± SD), 7.0 ± 1.6 x 10^4 M^-1s^-1; in series [5] (CA (N74D), mean ± SD) it was 3.0 ± 0.3 x 10^4 M^-1s^-1. The “dissociation rate constant (koff)” value in series [1] (CA (Q67H/N74D), mean ± SD) is given as 1.1 ± 0.5 x 10^-3 s^-1; in series [4] (CA (Q67H), mean ± SD), 7.3 ± 1.0 x 10^-5 s^-1; in [2] (CA (WT), mean ± SD), 1.5 ± 0.2 x 10^-5 s^-1; in [5] (CA (N74D), mean ± SD) it was 1.4 ± 0.02 x 10^-4 s^-1. Moreover, the Kd in series [1] (CA (Q67H/N74D), mean ± SD, read-out: equilibrium dissociation constant (KD)) was 34.1 nM; in series [4] (CA (Q67H), mean ± SD, read-out: equilibrium dissociation constant (KD)), 1.2 nM; in [2] (CA (WT), mean ± SD, three independent experiments, read-out: equilibrium dissociation constant (KD)), 0.23 ± 0.08 nM; in series [5] (CA (N74D), mean ± SD, read-out: equilibrium dissociation constant (KD)), 4.6 nM. The koff fold change in series [1] (Q67H/N74D CA compared to WT CA) is 73 fold; in [4] (Q67H CA compared to WT CA) it was 5 fold; in [2] (setting [6]), 1 fold; in [5] (N74D CA compared to WT CA), ~ 10 fold and 9 fold. Further, the kon fold change is listed as 0.4 fold in series [1] (Q67H/N74D CA compared to WT CA), 0.9 fold in series [4] (Q67H CA compared to WT CA), 1 fold in series [2] (setting [6]) and 0.4 fold in series [5] (N74D CA compared to WT CA). In [2] (setting [6]), this compound showed a KD fold change of 1 fold. Also, the “decreased virus susceptibility to the inhibitor” value in the series with HIV-1NL4-3 N74D CA ({}) is given as ~ 10 fold. For the same compound, the “decreased potency of the inhibitor with respect to the CA variant” value with HIV-1NL4-3 Q67H CA (Q67H CA variant versus WT) turned out to be 7 fold. Further, in the series on HIV-1(M66I CA), the “susceptibility of the virus to the inhibitor” value is listed as “fully resistant”. Further, in series [5] (N74D CA versus WT CA, stated as fold adverse effect), the “adverse effect on association rate constant” value is reported as ~ 2 fold.
